Source: PubChem BioAssay (NCI)
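In this assay, cells in 96-well plates receive the compound at five concentrations for 48 hours. Endpoints are linearly interpolated between the surrounding concentrations. Definition used: TGI = concentration required for complete inhibition of growth.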

How the values were obtained:
Experiment in all cases: NCI-60 cell line screen, 48 h
NCI-H23 lung = tested on: NCI-H23 lung
OVCAR-4 ovarian = tested on: OVCAR-4 ovarian
NCI/ADR-RES ovarian = tested on: NCI/ADR-RES ovarian
UACC-62 melanoma = tested on: UACC-62 melanoma
SF-268 CNS = tested on: SF-268 CNS
K-562 leukemia = tested on: K-562 leukemia
T-47D breast = tested on: T-47D breast
SK-MEL-5 melanoma = tested on: SK-MEL-5 melanoma
NCI-H226 lung = tested on: NCI-H226 lung
SNB-19 CNS = tested on: SNB-19 CNS
SF-295 CNS = tested on: SF-295 CNS
UO-31 renal = tested on: UO-31 renal
HT29 colon = tested on: HT29 colon
ACHN renal = tested on: ACHN renal
BT-549 breast = tested on: BT-549 breast
NCI-H460 lung = tested on: NCI-H460 lung
DU-145 prostate = tested on: DU-145 prostate
HOP-62 NSCLC = tested on: HOP-62 NSCLC
COLO 205 colon = tested on: COLO 205 colon
RXF 393 renal = tested on: RXF 393 renal
SK-MEL-28 melanoma = tested on: SK-MEL-28 melanoma
OVCAR-8 ovarian = tested on: OVCAR-8 ovarian
EKVX NSCLC = tested on: EKVX NSCLC
KM12 colon = tested on: KM12 colon
HOP-92 NSCLC = tested on: HOP-92 NSCLC
IGROV1 ovarian = tested on: IGROV1 ovarian
U251 CNS = tested on: U251 CNS
SK-MEL-2 melanoma = tested on: SK-MEL-2 melanoma
UACC-257 melanoma = tested on: UACC-257 melanoma
CAKI-1 renal = tested on: CAKI-1 renal
HCC-2998 colon = tested on: HCC-2998 colon
SNB-75 CNS = tested on: SNB-75 CNS
MDA-N = tested on: MDA-N
SR leukemia = tested on: SR leukemia
MOLT-4 leukemia = tested on: MOLT-4 leukemia
NCI-H522 lung = tested on: NCI-H522 lung
PC-3 prostate = tested on: PC-3 prostate
OVCAR-3 ovarian = tested on: OVCAR-3 ovarian
M14 melanoma = tested on: M14 melanoma
CCRF-CEM leukemia = tested on: CCRF-CEM leukemia
LOX IMVI melanoma = tested on: LOX IMVI melanoma
HL-60(TB) leukemia = tested on: HL-60(TB) leukemia
MDA-MB-435 = tested on: MDA-MB-435
HCT-15 colon = tested on: HCT-15 colon
SF-539 CNS = tested on: SF-539 CNS
HCT-116 colon = tested on: HCT-116 colon
TK-10 renal = tested on: TK-10 renal
MCF7 breast = tested on: MCF7 breast
SW-620 colon = tested on: SW-620 colon
786-0 renal = tested on: 786-0 renal
OVCAR-5 ovarian = tested on: OVCAR-5 ovarian
SN12C renal = tested on: SN12C renal
A498 renal = tested on: A498 renal
A549 NSCLC = tested on: A549 NSCLC
MDA-MB-231 breast = tested on: MDA-MB-231 breast
RPMI-8226 leukemia = tested on: RPMI-8226 leukemia
SK-OV-3 ovarian = tested on: SK-OV-3 ovarian
MALME-3M melanoma = tested on: MALME-3M melanoma

In the case of `COc1ccc(C2CC(=O)CC(c3ccc(OC)cc3)C23C(=O)NC(=S)NC3=O)cc1` (centres undefined), the TGI (NCI-H23 lung) is reported as > 100 µM, the TGI (OVCAR-4 ovarian) is reported as > 100 µM and the TGI (NCI/ADR-RES ovarian) is reported as > 100 µM. For the same compound, the TGI (UACC-62 melanoma) was > 100 µM, the TGI (SF-268 CNS) was > 100 µM and the TGI (K-562 leukemia) was > 100 µM. The TGI (T-47D breast) was > 100 µM, the TGI (SK-MEL-5 melanoma) was > 100 µM and the TGI (NCI-H226 lung) was > 100 µM. The TGI (SNB-19 CNS) was > 100 µM, the TGI (SF-295 CNS) was > 100 µM and the TGI (UO-31 renal) was > 100 µM. The TGI (HT29 colon) was > 100 µM, the TGI (ACHN renal) was > 100 µM and the TGI (BT-549 breast) was > 100 µM. The TGI (NCI-H460 lung) was > 100 µM, the TGI (DU-145 prostate) was > 100 µM and the TGI (HOP-62 NSCLC) was > 100 µM. The TGI (COLO 205 colon) was > 100 µM, the TGI (RXF 393 renal) was > 100 µM and the TGI (SK-MEL-28 melanoma) was > 100 µM. For the same compound, the TGI (OVCAR-8 ovarian) was > 100 µM, the TGI (EKVX NSCLC) was > 100 µM and the TGI (KM12 colon) was > 100 µM. The TGI (HOP-92 NSCLC) was > 100 µM, the TGI (IGROV1 ovarian) was > 100 µM and the TGI (U251 CNS) was > 100 µM. The TGI (SK-MEL-2 melanoma) was > 100 µM, the TGI (UACC-257 melanoma) was > 100 µM and the TGI (CAKI-1 renal) was > 100 µM. For the same compound, the TGI (HCC-2998 colon) was > 100 µM, the TGI (SNB-75 CNS) was > 100 µM and the TGI (MDA-N) was > 100 µM. For the same compound, the TGI (SR leukemia) was > 100 µM, the TGI (MOLT-4 leukemia) was > 100 µM and the TGI (NCI-H522 lung) was > 100 µM. The TGI (PC-3 prostate) was > 100 µM, the TGI (OVCAR-3 ovarian) was > 100 µM and the TGI (M14 melanoma) was > 100 µM. For the same compound, the TGI (CCRF-CEM leukemia) was > 100 µM, the TGI (LOX IMVI melanoma) was > 100 µM and the TGI (HL-60(TB) leukemia) was > 100 µM. For the same compound, the TGI (MDA-MB-435) was > 100 µM, the TGI (HCT-15 colon) was > 100 µM and the TGI (SF-539 CNS) was > 100 µM. The TGI (HCT-116 colon) was > 100 µM, the TGI (TK-10 renal) was > 100 µM and the TGI (MCF7 breast) was > 100 µM. For the same compound, the TGI (SW-620 colon) was > 100 µM, the TGI (786-0 renal) was > 100 µM and the TGI (OVCAR-5 ovarian) was > 100 µM. The TGI (SN12C renal) was > 100 µM.

In the case of `COc1ccc2c(c1)CC[C@@H]1[C@@H]2CC[C@]2(C)C(=O)/C(=C/c3ccncc3)C[C@@H]12`, the TGI (NCI-H23 lung) is reported as > 100 µM, the TGI (OVCAR-4 ovarian) is reported as > 100 µM and the TGI (NCI/ADR-RES ovarian) is reported as > 100 µM. For the same compound, the TGI (UACC-62 melanoma) was > 100 µM, the TGI (A498 renal) was 87.6 µM and the TGI (A549 NSCLC) was > 100 µM. For the same compound, the TGI (SF-268 CNS) was > 100 µM, the TGI (K-562 leukemia) was > 100 µM and the TGI (T-47D breast) was > 100 µM. The TGI (SK-MEL-5 melanoma) was 41.6 µM, the TGI (NCI-H226 lung) was > 100 µM and the TGI (SNB-19 CNS) was > 100 µM. The TGI (MDA-MB-231 breast) was > 100 µM, the TGI (SF-295 CNS) was 66.6 µM and the TGI (UO-31 renal) was > 100 µM. For the same compound, the TGI (RPMI-8226 leukemia) was > 100 µM, the TGI (HT29 colon) was > 100 µM and the TGI (ACHN renal) was > 100 µM. The TGI (BT-549 breast) was > 100 µM, the TGI (NCI-H460 lung) was > 100 µM and the TGI (DU-145 prostate) was > 100 µM. For the same compound, the TGI (HOP-62 NSCLC) was 54.9 µM, the TGI (SK-OV-3 ovarian) was > 100 µM and the TGI (COLO 205 colon) was > 100 µM. The TGI (RXF 393 renal) was 46.7 µM, the TGI (SK-MEL-28 melanoma) was 90.6 µM and the TGI (OVCAR-8 ovarian) was > 100 µM. For the same compound, the TGI (EKVX NSCLC) was > 100 µM, the TGI (KM12 colon) was 73.9 µM and the TGI (MALME-3M melanoma) was 77.3 µM. For the same compound, the TGI (HOP-92 NSCLC) was 77.9 µM, the TGI (IGROV1 ovarian) was > 100 µM and the TGI (U251 CNS) was > 100 µM. The TGI (SK-MEL-2 melanoma) was 60.1 µM, the TGI (UACC-257 melanoma) was > 100 µM and the TGI (CAKI-1 renal) was > 100 µM. The TGI (HCC-2998 colon) was 75.4 µM, the TGI (SNB-75 CNS) was > 100 µM and the TGI (MDA-N) was > 100 µM. For the same compound, the TGI (SR leukemia) was > 100 µM, the TGI (MOLT-4 leukemia) was > 100 µM and the TGI (NCI-H522 lung) was 92.1 µM. For the same compound, the TGI (PC-3 prostate) was > 100 µM, the TGI (OVCAR-3 ovarian) was 44.2 µM and the TGI (M14 melanoma) was > 100 µM. For the same compound, the TGI (CCRF-CEM leukemia) was > 100 µM, the TGI (LOX IMVI melanoma) was > 100 µM and the TGI (MDA-MB-435) was 92.4 µM. For the same compound, the TGI (HCT-15 colon) was > 100 µM, the TGI (SF-539 CNS) was 55.1 µM and the TGI (HCT-116 colon) was > 100 µM. The TGI (TK-10 renal) was > 100 µM, the TGI (MCF7 breast) was > 100 µM and the TGI (SW-620 colon) was 86 µM. For the same compound, the TGI (786-0 renal) was > 100 µM, the TGI (OVCAR-5 ovarian) was > 100 µM and the TGI (SN12C renal) was > 100 µM.
